Reference: patent publication US20260218121A1, “METHODS FOR CELL SURFACE REMODELING” (NANTES UNIVERSITÉ, priority 2023, published 2026)

Tests used:
[1] = Ruben et al., biomacromolecules, 2019, 20, 2726; cited from earlier work
DC2.4 cells = assay: Viability by live and dead assay (electro-bioconjugation or glyco-engineering); details: glyco-engineering (comparative), concentration of 250 μM, 72 h

CC(=O)OC[C@H]1OC(OC(C)=O)[C@@H](NC(=O)CN=[N+]=[N-])[C@@H](OC(C)=O)[C@@H]1OC(C)=O (some centres unmarked) [Ac4ManNAz]
concentration that can be used [1]: ≤ 100 µM
viability (DC2.4 cells): 30%
